{"source": "ChEMBL document CHEMBL3580649", "about": "“Cardamonin induces autophagy and an antiproliferative effect through JNK activation in human colorectal carcinoma HCT116 cells” (2015)", "key": {"HCT-116 [1]": {"system": "HCT-116", "test": "Induction of cell cycle arrest in human HCT116 cells assessed as cells accumulation at S phase at 10 uM after 24 hrs by propidium iodide staining-based flow cytometry (reference value: 48.8 +/- 1.5%)", "assay_type": "functional"}, "HCT-116 [2]": {"system": "HCT-116", "test": "Induction of cell cycle arrest in human HCT116 cells assessed as cells accumulation at G2/M phase at 10 uM after 24 hrs by propidium iodide staining-based flow cytometry (reference value: 19.2 +/- 0.3%)", "assay_type": "functional"}, "HCT-116 [3]": {"system": "HCT-116", "test": "Induction of autophagy in human HCT116 cells assessed as autophagic vacuoles at 10 uM after 24 hrs by monodansylcadaverine staining assay", "assay_type": "functional, cell-based"}, "HCT-116 [4]": {"system": "HCT-116", "test": "Induction of autophagy in human HCT116 cells assessed as autophagic vacuoles at 10 uM after 24 hrs by monodansylcadaverine staining assay in presence of Bafilomycin A1", "assay_type": "functional, cell-based"}, "HCT-116 [5]": {"system": "HCT-116", "test": "Induction of autophagy in human HCT116 cells assessed as increase in LC3-II accumulation at 10 uM upto 20 hrs by immunoblot analysis", "assay_type": "functional, cell-based"}, "HCT-116 [6]": {"system": "HCT-116", "test": "Induction of autophagy in human HCT116 cells assessed as increase in LC3-II accumulation at 10 uM upto 20 hrs by Confocal imaging analysis", "assay_type": "functional, cell-based"}, "HCT-116 [7]": {"system": "HCT-116", "test": "Induction of autophagy in human HCT116 cells assessed as increase in LC3-II dots per cell at 10 uM upto 20 hrs by Confocal imaging analysis relative to vehicle treated control (reference value: 0.8/cell)", "assay_type": "functional"}, "HCT-116 [8]": {"system": "HCT-116", "test": "Induction of autophagy in human HCT116 cells transfected with shRNA against p53 assessed as LC3-II accumulation at 10 uM after 24 hrs by Western blotting analysis", "assay_type": "functional, cell-based"}, "HCT-116 [9]": {"system": "HCT-116", "test": "Induction of autophagy in human HCT116 cells assessed as LC3-II accumulation at 10 uM upto 20 hrs by Western blotting analysis in presence of 30 uM PFT-alpha p53 antagonist", "assay_type": "functional, cell-based"}, "HCT-116 [10]": {"system": "HCT-116", "test": "Antiproliferative activity against human HCT116 cells transfected with shRNA against p53 at 10 uM after 24 hrs by CCK8 assay relative to control", "assay_type": "functional, cell-based"}, "HCT-116 [11]": {"system": "HCT-116", "test": "Antiproliferative activity against human HCT116 cells transfected with shRNA against p53 at 10 uM after 24 hrs by CCK8 assay in presence of exogenous p53 gene", "assay_type": "functional, cell-based"}, "[12]": {"biological_target": "Mitogen-activated protein kinase 8 (Homo sapiens) (UniProt P45983)", "sequence (P45983 whole entry)": "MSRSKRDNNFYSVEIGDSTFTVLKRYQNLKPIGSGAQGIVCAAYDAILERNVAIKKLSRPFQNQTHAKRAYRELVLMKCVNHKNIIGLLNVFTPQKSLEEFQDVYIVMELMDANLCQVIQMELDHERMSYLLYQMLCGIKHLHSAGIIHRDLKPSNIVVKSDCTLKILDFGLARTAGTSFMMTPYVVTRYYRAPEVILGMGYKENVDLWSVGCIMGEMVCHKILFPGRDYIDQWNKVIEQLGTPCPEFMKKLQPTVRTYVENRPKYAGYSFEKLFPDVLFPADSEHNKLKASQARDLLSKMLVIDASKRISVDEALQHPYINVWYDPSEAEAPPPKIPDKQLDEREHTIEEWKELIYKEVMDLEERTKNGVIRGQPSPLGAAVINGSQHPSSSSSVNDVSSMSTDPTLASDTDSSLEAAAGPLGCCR", "test": "Activation of JNK1 in human HCT116 cells assessed as phosphorylation at 10 uM after 24 hrs by Western blotting analysis", "assay_type": "cell-based", "conditions": "HCT-116"}, "[13]": {"biological_target": "Mitogen-activated protein kinase 9 (Homo sapiens) (UniProt P45984)", "sequence (P45984 whole entry, looked up)": "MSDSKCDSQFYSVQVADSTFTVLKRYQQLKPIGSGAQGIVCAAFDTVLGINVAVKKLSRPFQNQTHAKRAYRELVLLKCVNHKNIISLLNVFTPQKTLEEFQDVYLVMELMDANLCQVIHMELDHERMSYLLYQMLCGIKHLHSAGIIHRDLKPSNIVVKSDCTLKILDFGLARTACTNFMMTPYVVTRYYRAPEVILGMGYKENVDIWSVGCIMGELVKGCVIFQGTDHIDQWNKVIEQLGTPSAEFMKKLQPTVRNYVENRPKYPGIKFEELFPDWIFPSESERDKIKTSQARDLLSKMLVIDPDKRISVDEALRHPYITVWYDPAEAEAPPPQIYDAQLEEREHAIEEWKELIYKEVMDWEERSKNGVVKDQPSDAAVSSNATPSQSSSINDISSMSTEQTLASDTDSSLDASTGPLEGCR", "test": "Activation of JNK2 in human HCT116 cells assessed as phosphorylation at 10 uM after 24 hrs by Western blotting analysis", "assay_type": "cell-based", "conditions": "HCT-116"}, "[14]": {"biological_target": "Mitogen-activated protein kinase 8 (Homo sapiens) (UniProt P45983)", "test": "Activation of JNK1 in human HCT116 cells transfected with shRNA against p53 assessed as phosphorylation at 10 uM after 24 hrs by Western blotting analysis", "assay_type": "cell-based", "conditions": "HCT-116"}, "[15]": {"biological_target": "Mitogen-activated protein kinase 9 (Homo sapiens) (UniProt P45984)", "test": "Activation of JNK2 in human HCT116 cells transfected with shRNA against p53 assessed as phosphorylation at 10 uM after 24 hrs by Western blotting analysis", "assay_type": "cell-based", "conditions": "HCT-116"}, "[16]": {"biological_target": "Mitogen-activated protein kinase 8 (Homo sapiens) (UniProt P45983)", "test": "Activation of JNK1 in human HCT116 cells assessed as phosphorylation at 10 uM after 24 hrs by Western blotting analysis in presence of 30 uM PFT-alpha p53 antagonist", "assay_type": "cell-based", "conditions": "HCT-116"}, "[17]": {"biological_target": "Mitogen-activated protein kinase 9 (Homo sapiens) (UniProt P45984)", "test": "Activation of JNK2 in human HCT116 cells assessed as phosphorylation at 10 uM after 24 hrs by Western blotting analysis in presence of 30 uM PFT-alpha p53 antagonist", "assay_type": "cell-based", "conditions": "HCT-116"}, "HCT-116 [18]": {"system": "HCT-116", "test": "Induction of autophagy in human HCT116 cells assessed as LC3-II accumulation at 10 uM upto 20 hrs by Western blotting analysis in presence of 20 uM SP600125 reversible JNK inhibitor", "assay_type": "functional, cell-based"}, "HCT-116 [19]": {"system": "HCT-116", "test": "Antiproliferative activity against human HCT116 cells at 10 uM upto 20 hrs by CCK8 assay relative to control in presence of 20 uM SP600125 reversible JNK inhibitor", "assay_type": "functional, cell-based"}, "HCT-116 [20]": {"system": "HCT-116", "test": "Antiproliferative activity against human HCT116 cells assessed as cell viability after 24 hrs by WST8 assay", "assay_type": "functional, cell-based"}, "HCT-116 [21]": {"system": "HCT-116", "test": "Antiproliferative activity against human HCT116 cells assessed as cell viability at 10 uM after 24 hrs by WST8 assay relative to vehicle treated control", "assay_type": "functional", "conditions": "HCT-116, 24 h"}, "HCT-116 [22]": {"system": "HCT-116", "test": "Induction of cell cycle arrest in human HCT116 cells assessed as cells accumulation at G0/G1 phase at 10 uM after 24 hrs by propidium iodide staining-based flow cytometry (reference value: 31.9 +/- 2.3%)", "assay_type": "functional"}}, "note": "Active and inactive are the calls of the source. The calls are words filed in the database; no cut-off is given here."}
{"smiles": "COc1cc(O)cc(O)c1C(=O)/C=C/c1ccccc1", "note": "[CARDAMOMIN]", "values": [{"measurement": "Activity", "setting": "HCT-116 [1]", "value": 46.6, "unit": "%"}, {"measurement": "Activity", "setting": "HCT-116 [2]", "value": 25, "unit": "%"}, {"measurement": "Activity", "setting": "HCT-116 [3]", "value": "Active"}, {"measurement": "Activity", "setting": "HCT-116 [4]", "value": "inactive"}, {"measurement": "Activity", "setting": "HCT-116 [5]", "value": "Active"}, {"measurement": "Activity", "setting": "HCT-116 [6]", "value": "Active"}, {"measurement": "Activity", "setting": "HCT-116 [7]", "value": 3.4}, {"measurement": "Activity", "setting": "HCT-116 [8]", "value": "inactive"}, {"measurement": "Activity", "setting": "HCT-116 [9]", "value": "inactive"}, {"measurement": "inhibition", "setting": "HCT-116 [10]", "value": "inactive"}, {"measurement": "inhibition", "setting": "HCT-116 [11]", "value": "Active"}, {"measurement": "Activity", "setting": "[12]", "value": "Active"}, {"measurement": "Activity", "setting": "[13]", "value": "Active"}, {"measurement": "Activity", "setting": "[14]", "value": "inactive"}, {"measurement": "Activity", "setting": "[15]", "value": "inactive"}, {"measurement": "Activity", "setting": "[16]", "value": "inactive"}, {"measurement": "Activity", "setting": "[17]", "value": "inactive"}, {"measurement": "Activity", "setting": "HCT-116 [18]", "value": "inactive"}, {"measurement": "Activity", "setting": "HCT-116 [19]", "value": "inactive"}, {"measurement": "inhibition", "setting": "HCT-116 [20]", "value": "Dose-dependent effect"}, {"measurement": "inhibition at 10 µM", "setting": "HCT-116 [21]", "value": 37, "unit": "%"}, {"measurement": "Activity", "setting": "HCT-116 [22]", "value": 28.4, "unit": "%"}]}
